Test system: 354836-022-R-J1-PDC multicell spheroid viability
Assay: Anticancer human tumor 354836-022-R-J1-PDC patient-derived head and neck squamous cell carcinoma cell line growth inhibition [PI3K]
Settings: for IC50: curve of first compound; for viability, T/C: stronger effect = lower value
In short: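 High-throughput combination screen: PI3K inhibitors crossed with targeted small molecules on complex spheroids of tumor cells, HUVEC and MSCs at 37 degrees C, 5% CO2. Top concentration was at or near clinical Cmax (otherwise 10 microM), with half-log decrements.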

[1] = second compound 0.0316 µM, first compound 0.0316 µM
[2] = second compound 0.0316 µM, first compound 0.1 µM
[3] = second compound 0.0316 µM, first compound 0.316 µM
[4] = second compound 0.0316 µM, first compound 1 µM
[5] = second compound 0.1 µM, first compound 0.0316 µM
[6] = second compound 0.1 µM, first compound 0.1 µM
[7] = second compound 0.1 µM, first compound 0.316 µM
[8] = second compound 0.1 µM, first compound 1 µM
[9] = second compound 0.316 µM, first compound 0.0316 µM
[10] = second compound 0.316 µM, first compound 0.1 µM
[11] = second compound 0.316 µM, first compound 0.316 µM
[12] = second compound 0.316 µM, first compound 1 µM
[13] = second compound 1 µM, first compound 0.0316 µM
[14] = second compound 1 µM, first compound 0.1 µM
[15] = second compound 1 µM, first compound 0.316 µM
[16] = second compound 1 µM, first compound 1 µM
[17] = second compound 3.16 µM, first compound 0.0316 µM
[18] = second compound 3.16 µM, first compound 0.1 µM
[19] = second compound 3.16 µM, first compound 0.316 µM
[20] = second compound 3.16 µM, first compound 1 µM
[21] = second compound 10 µM, first compound 0.0316 µM
[22] = second compound 10 µM, first compound 0.1 µM
[23] = second compound 10 µM, first compound 0.316 µM
[24] = second compound 10 µM, first compound 1 µM
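Further: spheroids exposed to agents for seven days before the viability read.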

Question: What does the source list for CC(C)NCC(C(=O)N1CCN(c2ncnc3c2C(C)CC3O)CC1)c1ccc(Cl)cc1 (centres undefined) + Cc1nc(NC(=O)N2CCCC2C(N)=O)sc1-c1ccnc(C(C)(C)C(F)(F)F)c1?
Answer: IC50 (second compound 0.0316 µM): 240 nM; IC50 (second compound 0.1 µM): 221 nM; IC50 (second compound 0.316 µM): 225 nM; IC50 (second compound 1 µM): 401 nM; IC50 (second compound 3.16 µM): 116 nM; IC50 (second compound 10 µM): < 31.6 nM; viability, T/C [1]: 96%; viability, T/C [2]: 64.5%; viability, T/C [3]: 50.7%; viability, T/C [4]: 22.4%; viability, T/C (second compound 0.0316 µM, first compound 3.16 µM): 18.8%; viability, T/C (second compound 0.0316 µM, first compound 10 µM): 12.2%; viability, T/C [5]: 78.9%; viability, T/C [6]: 57.3%; viability, T/C [7]: 51.4%; viability, T/C [8]: 24%; viability, T/C (second compound 0.1 µM, first compound 3.16 µM): 17.5%; viability, T/C (second compound 0.1 µM, first compound 10 µM): 10.2%; viability, T/C [9]: 79.3%; viability, T/C [10]: 65%; viability, T/C [11]: 42%; viability, T/C [12]: 29%; viability, T/C (second compound 0.316 µM, first compound 3.16 µM): 16.8%; viability, T/C (second compound 0.316 µM, first compound 10 µM): 6.96%; viability, T/C [13]: 59.7%; viability, T/C [14]: 73.8%; viability, T/C [15]: 54.1%; viability, T/C [16]: 27.9%; viability, T/C (second compound 1 µM, first compound 3.16 µM): 18.5%; viability, T/C (second compound 1 µM, first compound 10 µM): 6.41%; viability, T/C [17]: 53.7%; viability, T/C [18]: 53.2%; viability, T/C [19]: 40.2%; viability, T/C [20]: 22.7%; viability, T/C (second compound 3.16 µM, first compound 3.16 µM): 13.2%; viability, T/C (second compound 3.16 µM, first compound 10 µM): 6.1%; viability, T/C [21]: 34.4%; viability, T/C [22]: 32%; viability, T/C [23]: 24.8%; viability, T/C [24]: 13.5%; viability, T/C (second compound 10 µM, first compound 3.16 µM): 8.39%; viability, T/C (second compound 10 µM, first compound 10 µM): 4.1%

Question: CCN1CCN(Cc2ccc(Nc3ncc(F)c(-c4cc(F)c5nc(C)n(C(C)C)c5c4)n3)nc2)CC1 + Cc1nc(NC(=O)N2CCCC2C(N)=O)sc1-c1ccnc(C(C)(C)C(F)(F)F)c1 was tested. Which IC50 (second compound 0.0316 µM) did it give?
Answer: > 1000 nM

Question: And the IC50 (second compound 0.1 µM)?
Answer: > 1000 nM

Question: And the IC50 (second compound 0.316 µM)?
Answer: > 1000 nM

Question: What about the IC50 (second compound 1 µM) of the same molecule?
Answer: 455 nM

Question: And the IC50 (second compound 3.16 µM)?
Answer: 322 nM

Question: And the IC50 (second compound 10 µM)?
Answer: < 3.16 nM

Question: What about the viability, T/C (second compound 0.0316 µM, first compound 0.00316 µM) of the same molecule?
Answer: 107%

Question: What about the viability, T/C (second compound 0.0316 µM, first compound 0.01 µM) of the same molecule?
Answer: 82.5%

Question: What about the viability, T/C [1] of the same molecule?
Answer: 97.9%

Question: What about the viability, T/C [2] of the same molecule?
Answer: 90.9%

Question: What about the viability, T/C [3] of the same molecule?
Answer: 99.7%

Question: And the viability, T/C [4]?
Answer: 62.8%

Question: What about the viability, T/C (second compound 0.1 µM, first compound 0.00316 µM) of the same molecule?
Answer: 94.4%

Question: And the viability, T/C (second compound 0.1 µM, first compound 0.01 µM)?
Answer: 82.5%

Question: And the viability, T/C [5]?
Answer: 91.5%

Question: What about the viability, T/C [6] of the same molecule?
Answer: 77.7%

Question: What about the viability, T/C [7] of the same molecule?
Answer: 91.8%

Question: What about the viability, T/C [8] of the same molecule?
Answer: 69.1%

Question: And the viability, T/C (second compound 0.316 µM, first compound 0.00316 µM)?
Answer: 87.6%

Question: What about the viability, T/C (second compound 0.316 µM, first compound 0.01 µM) of the same molecule?
Answer: 96.4%

Question: What about the viability, T/C [9] of the same molecule?
Answer: 69.5%

Question: What about the viability, T/C [10] of the same molecule?
Answer: 92%

Question: What about the viability, T/C [11] of the same molecule?
Answer: 84.2%

Question: What about the viability, T/C [12] of the same molecule?
Answer: 51.1%

Question: And the viability, T/C (second compound 1 µM, first compound 0.00316 µM)?
Answer: 67.9%

Question: What about the viability, T/C (second compound 1 µM, first compound 0.01 µM) of the same molecule?
Answer: 90.8%

Question: And the viability, T/C [13]?
Answer: 63.2%

Question: What about the viability, T/C [14] of the same molecule?
Answer: 67.8%

Question: And the viability, T/C [15]?
Answer: 59.5%

Question: And the viability, T/C [16]?
Answer: 33.3%

Question: What about the viability, T/C (second compound 3.16 µM, first compound 0.00316 µM) of the same molecule?
Answer: 51.9%

Question: And the viability, T/C (second compound 3.16 µM, first compound 0.01 µM)?
Answer: 61.8%

Question: And the viability, T/C [17]?
Answer: 54.4%

Question: And the viability, T/C [18]?
Answer: 59.3%

Question: And the viability, T/C [19]?
Answer: 49.8%

Question: What about the viability, T/C [20] of the same molecule?
Answer: 18.8%

Question: What about the viability, T/C (second compound 10 µM, first compound 0.00316 µM) of the same molecule?
Answer: 31.8%

Question: And the viability, T/C (second compound 10 µM, first compound 0.01 µM)?
Answer: 36.6%

Question: And the viability, T/C [21]?
Answer: 35%

Question: And the viability, T/C [22]?
Answer: 28.9%

Question: And the viability, T/C [23]?
Answer: 25.2%

Question: And the viability, T/C [24]?
Answer: 9.14%

— PubChem BioAssay AID1963981 (Molecular Pharmacology Branch, DTP, NCI, 2024)
